Source: ChEMBL document CHEMBL3045602, “Synthesis and antimicrobial activity of novel derivatives of Biginelli pyrimidines” (2012)
≈ marks a conversion by molar mass, not a printed value.

Experiments:
Type in all cases: functional
Candida albicans = assay: Antimicrobial activity against Candida albicans PTCC 5027 after 24 hr by Alamar blue assay; settings: PTCC 5027, 24 h
Aspergillus niger = assay: Antimicrobial activity against Aspergillus niger 5021 after 24 hr by Alamar blue assay; settings: Aspergillus niger, 5021, 24 h
Bacillus subtilis = assay: Antimicrobial activity against Bacillus subtilis PTCC 1023 after 24 hr by Alamar blue assay; settings: PTCC 1023, 24 h
Listeria monocytogenes = assay: Antimicrobial activity against Listeria monocytogenes PTCC 1165 after 24 hr by Alamar blue assay; settings: PTCC 1165, 24 h
Staphylococcus aureus = assay: Antimicrobial activity against Staphylococcus aureus PTCC 1337 after 24 hr by Alamar blue assay; settings: PTCC 1337, 24 h
Pseudomonas aeruginosa = assay: Antimicrobial activity against Pseudomonas aeruginosa PTCC 1074 after 24 hr by Alamar blue assay; settings: PTCC 1074, 24 h
Salmonella enteritidis = assay: Antimicrobial activity against Salmonella enterica subsp. enterica serovar Enteritidis PTCC 1091 after 24 hr by Alamar blue assay; settings: PTCC 1091, 24 h
Escherichia coli = assay: Antimicrobial activity against Escherichia coli PTCC 1338 after 24 hr by Alamar blue assay; settings: PTCC 1338, 24 h

| SMILES | MIC (Candida albicans) | MIC (Aspergillus niger) | MIC (Bacillus subtilis) | MIC (Listeria monocytogenes) | MIC (Staphylococcus aureus) | MIC (Pseudomonas aeruginosa) | MIC (Salmonella enteritidis) | MIC (Escherichia coli) |
| --- | --- | --- | --- | --- | --- | --- | --- | --- |
| CC(=O)N1CCN(c2ccc(OCC3COC(Cn4ccnc4)(c4ccc(Cl)cc4Cl)O3)cc2)CC1 (configuration not stated) [KETOCONAZOLE] | 2 mg/L (≈ 3.76 µM) | 4 mg/L (≈ 7.53 µM) |  |  |  |  |  |  |
| CCOC(=O)C1=C(C)NC(=O)NC1c1cnc(SC)n1Cc1ccccc1 (configuration not stated) | 64 mg/L (≈ 166 µM) | 64 mg/L (≈ 166 µM) | 512 mg/L (≈ 1320 µM) | 512 mg/L (≈ 1320 µM) | > 512 mg/L | 256 mg/L (≈ 662 µM) | 512 mg/L (≈ 1320 µM) | 256 mg/L (≈ 662 µM) |
| CSc1ncc(C2NC(=O)NC(C)=C2C(=O)Nc2ccc(Cl)cc2)n1Nc1ccccc1 (configuration not stated) | 32 mg/L (≈ 68.2 µM) | 64 mg/L (≈ 136 µM) | > 512 mg/L | > 512 mg/L | > 512 mg/L | > 512 mg/L | 512 mg/L (≈ 1090 µM) | 512 mg/L (≈ 1090 µM) |
| CSc1ncc(C2NC(=O)NC(C)=C2C(=O)Nc2cccc(Cl)c2)n1Nc1ccccc1 (configuration not stated) | 128 mg/L (≈ 273 µM) | 128 mg/L (≈ 273 µM) | > 512 mg/L | > 512 mg/L | > 512 mg/L | 512 mg/L (≈ 1090 µM) | > 512 mg/L | > 512 mg/L |
| CC1=C(C(=O)Nc2ccccn2)C(c2cccs2)NC(=O)N1 (configuration not stated) | > 512 mg/L | > 512 mg/L | > 512 mg/L | 512 mg/L (≈ 1630 µM) | 512 mg/L (≈ 1630 µM) | 512 mg/L (≈ 1630 µM) | 512 mg/L (≈ 1630 µM) | > 512 mg/L |
| COC(=O)C1=C(C)NC(=O)NC1c1cnc(SC)n1Nc1ccccc1 (configuration not stated) | 128 mg/L (≈ 343 µM) | 128 mg/L (≈ 343 µM) | > 512 mg/L | > 512 mg/L | > 512 mg/L | 256 mg/L (≈ 686 µM) | 512 mg/L (≈ 1370 µM) | 512 mg/L (≈ 1370 µM) |
| O=C(O)c1cn(C2CC2)c2cc(N3CCNCC3)c(F)cc2c1=O [CIPROFLOXACIN] |  |  | 0.06 mg/L (≈ 0.181 µM) | 1 mg/L (≈ 3.02 µM) | 0.5 mg/L (≈ 1.51 µM) |  | 1 mg/L (≈ 3.02 µM) |  |
| CSc1ncc(C2NC(=O)NC(C)=C2C(=O)Nc2ccccc2Cl)n1Nc1ccccc1 (configuration not stated) | 128 mg/L (≈ 273 µM) | 128 mg/L (≈ 273 µM) | > 512 mg/L | > 512 mg/L | > 512 mg/L | 256 mg/L (≈ 546 µM) | > 512 mg/L | 256 mg/L (≈ 546 µM) |
| CC1=C(C(=O)OC(C)C)C(c2cccs2)NC(S)=N1 (configuration not stated) | > 512 mg/L | > 512 mg/L | > 512 mg/L | > 512 mg/L | > 512 mg/L | > 512 mg/L | > 512 mg/L | > 512 mg/L |
| CCOC(=O)C1=C(C)NC(=O)NC1c1cnc(SC)n1Nc1ccccc1 (configuration not stated) | 64 mg/L (≈ 165 µM) | 128 mg/L (≈ 330 µM) | > 512 mg/L | > 512 mg/L | > 512 mg/L | 128 mg/L (≈ 330 µM) | 512 mg/L (≈ 1320 µM) | 256 mg/L (≈ 661 µM) |

Other lines, results leading:

| MIC (Candida albicans) | MIC (Aspergillus niger) | MIC (Bacillus subtilis) | MIC (Listeria monocytogenes) | MIC (Staphylococcus aureus) | MIC (Pseudomonas aeruginosa) | MIC (Salmonella enteritidis) | MIC (Escherichia coli) | SMILES |
| --- | --- | --- | --- | --- | --- | --- | --- | --- |
| 256 mg/L (≈ 547 µM) | 128 mg/L (≈ 274 µM) | 256 mg/L (≈ 547 µM) | > 512 mg/L | 128 mg/L (≈ 274 µM) | 256 mg/L (≈ 547 µM) | 256 mg/L (≈ 547 µM) | > 512 mg/L | CSc1ncc(C2NC(=O)NC(C)=C2C(=O)Nc2cccc(Cl)c2)n1Cc1ccccc1 (configuration not stated) |
| > 512 mg/L | > 512 mg/L | 512 mg/L (≈ 1650 µM) | 512 mg/L (≈ 1650 µM) | 512 mg/L (≈ 1650 µM) | 512 mg/L (≈ 1650 µM) | > 512 mg/L | 256 mg/L (≈ 825 µM) | CCCCOC(=O)C1=C(C)NC(=S)NC1c1cccs1 (configuration not stated) |
| > 512 mg/L | > 512 mg/L | 256 mg/L (≈ 736 µM) | 256 mg/L (≈ 736 µM) | 512 mg/L (≈ 1470 µM) | > 512 mg/L | > 512 mg/L | > 512 mg/L | CC1=C(C(=O)Nc2ccccc2Cl)C(c2cccs2)NC(=O)N1 (configuration not stated) |
| 256 mg/L (≈ 687 µM) | 256 mg/L (≈ 687 µM) | 512 mg/L (≈ 1370 µM) | > 512 mg/L | 512 mg/L (≈ 1370 µM) | 512 mg/L (≈ 1370 µM) | > 512 mg/L | 512 mg/L (≈ 1370 µM) | COC(=O)C1=C(C)NC(=O)NC1c1cnc(SC)n1Cc1ccccc1 (configuration not stated) |
| 256 mg/L (≈ 547 µM) | 256 mg/L (≈ 547 µM) | > 512 mg/L | > 512 mg/L | 256 mg/L (≈ 547 µM) | 256 mg/L (≈ 547 µM) | > 512 mg/L | 256 mg/L (≈ 547 µM) | CSc1ncc(C2NC(=O)NC(C)=C2C(=O)Nc2ccc(Cl)cc2)n1Cc1ccccc1 (configuration not stated) |
| 32 mg/L (≈ 73.5 µM) | 64 mg/L (≈ 147 µM) | > 512 mg/L | > 512 mg/L | > 512 mg/L | 512 mg/L (≈ 1180 µM) | > 512 mg/L | 512 mg/L (≈ 1180 µM) | CSc1ncc(C2NC(=O)NC(C)=C2C(=O)Nc2cccnc2)n1Nc1ccccc1 (configuration not stated) |
| > 512 mg/L | > 512 mg/L | > 512 mg/L | 512 mg/L (≈ 1650 µM) | 512 mg/L (≈ 1650 µM) | > 512 mg/L | > 512 mg/L | 512 mg/L (≈ 1650 µM) | CC1=C(C(=O)OCC(C)C)C(c2cccs2)NC(S)=N1 (configuration not stated) |
| 32 mg/L (≈ 73.5 µM) | 64 mg/L (≈ 147 µM) | > 512 mg/L | > 512 mg/L | > 512 mg/L | > 512 mg/L | > 512 mg/L | > 512 mg/L | CSc1ncc(C2NC(=O)NC(C)=C2C(=O)Nc2ccccn2)n1Nc1ccccc1 (configuration not stated) |
| > 512 mg/L | > 512 mg/L | > 512 mg/L | 512 mg/L (≈ 1630 µM) | > 512 mg/L | 512 mg/L (≈ 1630 µM) | 512 mg/L (≈ 1630 µM) | > 512 mg/L | CC1=C(C(=O)Nc2cccnc2)C(c2cccs2)NC(=O)N1 (configuration not stated) |
| 64 mg/L (≈ 147 µM) | 128 mg/L (≈ 295 µM) | > 512 mg/L | > 512 mg/L | > 512 mg/L | 256 mg/L (≈ 589 µM) | > 512 mg/L | 256 mg/L (≈ 589 µM) | CSc1ncc(C2NC(=O)NC(C)=C2C(=O)Nc2ccccn2)n1Cc1ccccc1 (configuration not stated) |
| 256 mg/L (≈ 547 µM) | 256 mg/L (≈ 547 µM) | > 512 mg/L | > 512 mg/L | > 512 mg/L | 512 mg/L (≈ 1090 µM) | > 512 mg/L | 512 mg/L (≈ 1090 µM) | CSc1ncc(C2NC(=O)NC(C)=C2C(=O)Nc2ccccc2Cl)n1Cc1ccccc1 (configuration not stated) |
| > 512 mg/L | > 512 mg/L | 512 mg/L (≈ 1470 µM) | 256 mg/L (≈ 736 µM) | 512 mg/L (≈ 1470 µM) | > 512 mg/L | > 512 mg/L | > 512 mg/L | CC1=C(C(=O)Nc2cccc(Cl)c2)C(c2cccs2)NC(=O)N1 (configuration not stated) |
| > 512 mg/L | > 512 mg/L | 512 mg/L (≈ 1470 µM) | 512 mg/L (≈ 1470 µM) | 256 mg/L (≈ 736 µM) | 512 mg/L (≈ 1470 µM) | 512 mg/L (≈ 1470 µM) | > 512 mg/L | CC1=C(C(=O)Nc2ccc(Cl)cc2)C(c2cccs2)NC(=O)N1 (configuration not stated) |
| 128 mg/L (≈ 295 µM) | 128 mg/L (≈ 295 µM) | 512 mg/L (≈ 1180 µM) | > 512 mg/L | 512 mg/L (≈ 1180 µM) | 256 mg/L (≈ 589 µM) | 512 mg/L (≈ 1180 µM) | 256 mg/L (≈ 589 µM) | CSc1ncc(C2NC(=O)NC(C)=C2C(=O)Nc2cccnc2)n1Cc1ccccc1 (configuration not stated) |
